From patent publication US9475328B2, “Developer for thermally responsive record materials” (Valspar Sourcing, Inc., priority 2012, dated 2016)

Test system: MCF-7, clone WS8 cells
Assay: MCF-7 cell proliferation assay of estrogenic activity
Format: cell-based, human
Conditions: logarithmic (base 10) Relative Proliferative Effect vs 17-beta estradiol; cell proliferation measured as total DNA; values 'expected or measured'
Description: The MCF-7 assay is a useful test for assessing whether a polyhydric phenol compound is appreciably non-estrogenic. The MCF-7 assay uses MCF-7, clone WS8 cells to measure whether and to what extent a substance induces cell proliferation via estrogen receptor (ER)-mediated pathways. The method is described in “Test Method Nomination: MCF-7 Cell Proliferation Assay of Estrogenic Activity” submitted for validation by CertiChem, Inc. to the National Toxicology Program Interagency Center for the Evaluation of Alternative Toxicological Methods (NICEATM) on Jan. 19, 2006 (available online at http://iccvam.niehs.nih.gov/methods/endocrine/endodocs/SubmDoc.pdf).
A brief summary of the method of the aforementioned MCF-7 assay is provided below. MCF-7, clone WS8 cells are maintained at 37° C. in RMPI (Roswell Park Memorial Institute medium) containing Phenol Red (e.g., GIBCO Catalog Number 11875119) and supplemented with the indicated additives for routine culture. […] At the end of the 7 day exposure to the test chemical, the media is removed, the wells are washed once with 0.2 ml of HBSS (Hanks' Balanced Salt Solution), and then assayed to quantify amounts of DNA per well using a micro-plate modification of the Burton diphenylamine (DPA) assay, which is used to calculate the level of cell proliferation. […]

| SMILES | Log RPE |
| --- | --- |
| C[C@]12CC[C@@H]3c4ccc(O)cc4CC[C@H]3[C@@H]1CC[C@@H]2O [17β-estradiol] | 2.00 |
| Oc1ccc(Cc2ccc(O)cc2)cc1 [Bisphenol F] | −2 |

Molecular target: T1, human estrogen receptor (Homo sapiens, UniProt P03372)
T1 sequence (P03372 1-595): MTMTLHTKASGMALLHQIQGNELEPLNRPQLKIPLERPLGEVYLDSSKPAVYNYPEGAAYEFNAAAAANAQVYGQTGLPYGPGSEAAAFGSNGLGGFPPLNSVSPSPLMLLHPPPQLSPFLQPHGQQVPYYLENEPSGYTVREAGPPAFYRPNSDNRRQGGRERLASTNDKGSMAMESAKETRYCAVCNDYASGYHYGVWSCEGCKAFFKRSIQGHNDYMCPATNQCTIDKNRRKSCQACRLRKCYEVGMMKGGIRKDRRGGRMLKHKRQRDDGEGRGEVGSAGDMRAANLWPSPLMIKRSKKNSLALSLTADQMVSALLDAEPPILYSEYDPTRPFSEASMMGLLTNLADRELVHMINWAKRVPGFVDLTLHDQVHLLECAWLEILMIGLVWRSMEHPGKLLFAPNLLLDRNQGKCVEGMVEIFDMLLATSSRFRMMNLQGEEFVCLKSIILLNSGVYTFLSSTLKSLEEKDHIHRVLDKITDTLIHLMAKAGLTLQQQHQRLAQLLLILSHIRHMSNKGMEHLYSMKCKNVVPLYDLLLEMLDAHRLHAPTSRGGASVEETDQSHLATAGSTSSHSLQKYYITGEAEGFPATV
Assay: suitable in vitro assay whose results correlate with the MCF-7 assay (estrogenic activity)
Format: cell-based
Conditions: in vitro assay correlated to MCF-7 assay through common reference compounds

| SMILES | estrogenic activity |
| --- | --- |
| Cc1cc(Cc2cc(C)cc(C(C)(C)C)c2O)c(O)c(C(C)(C)C)c1 [Structure 9] | do not exhibit appreciable estrogenic activity |
| CC(C)(C)c1cc(Cc2cc(C(C)(C)C)c(O)c(C(C)(C)C)c2)cc(C(C)(C)C)c1O [Structure 8, 4,4′-methylenebis(2,6-di-t-butylphenol)] | do not exhibit appreciable estrogenic activity |
| CCCC(c1cc(C(C)(C)C)c(O)cc1C)c1cc(C(C)(C)C)c(O)cc1C [Structure 7, 4,4′-butylidenebis(2-t-butyl-5-methylphenol)] | do not exhibit appreciable estrogenic activity |
| Cc1cc(Cc2cc(C)c(O)c(C)c2)cc(C)c1O [Structure 6, 4,4′-methylenebis(2,6-dimethylphenol)] | do not exhibit appreciable estrogenic activity |
| CC(C)(C)c1cc(O)c(C(C)(C)C)cc1O [Structure 12, 2,5-di-t-butylhydroquinone] | do not exhibit appreciable estrogenic activity |
